According to US12473310B2, “Vitamin D3 phosphate and pharmaceutically acceptable salts thereof, pharmaceutical compositions comprising the compound and methods for preparing the compound” (King's College London, priority 2020, dated 2025):
≈ marks a conversion by molar mass, not a printed value. Structures can show the parent of a compound that is named as a salt. Where two headings read alike, the source gives them in different places.

Assays:
Assay type in all cases: physicochemical
[1] = physchem; conditions: thermodynamic from solid, visual
Method: An aliquot of 2.5 mg cholecalciferol and 2.5 mg cholecalciferol phosphate disodium salt prepared according to Example 1 were weighed into glass vials and 100 μL aliquots of the test solvents with different dielectric constants; water, MeOH:water (90:10), ethylene glycol, methanol (MeOH), propylene glycol (PG), ethanol (EtOH), poly(ethylene glycol) (PEG-400), and mineral oil were added until the sample was fully dissolved visually. A precise determination of the solubility was undertaken using high-performance liquid chromatography (HPLC). In the HPLC solubility studies an excess amount of cholecalciferol and cholecalciferol phosphate was added into 2 mL of each test solvent; water, MeOH:water (90:10), MeOH, and PG, EtOH and mineral oil. The solutions were left stirring overnight at room temperature, (RT), 22° C. The saturation of the solutions was confirmed by the visual appearance of crystals and the drug suspensions were filtered through 0.2 μm syringe filters, diluted, and the concentration of each sample was assessed using the HPLC method detailed below.

[2] = solubility in donor solution and thermodynamic activity (Table 4); conditions: for solubility: organic solvent or mixture, thermodynamic from solid; for Thermodynamic activity: proposed concentration in permeation studies relative to solubility
[3] = chemical stability on storage over 4 weeks
Method: The chemical stability of cholecalciferol phosphate acid/disodium salt was assessed in three different conditions over a 4-week period. Aliquots of 2 mg for each sample was stored at room temperature, 4° C., and −20° C. in a glass bottle covered with foil. A 20 mL sample of MeOH and MeOH:water (90:10) was added to cholecalciferol phosphate acid and cholecalciferol phosphate disodium salt, and the concentration and purity were assessed every week by the HPLC method described previously. The peak area was used to calculate sample concentration and the gradient of the data points being used to calculate the degradation rate.

[4] = solubility of disodium salt in water by HPLC; conditions: thermodynamic from solid, distilled water
Method: Cholecalciferol phosphate disodium salt was added into 1.5 mL distilled water until it generated precipitation. The supersaturated solution was filtered into a glass bottle through a 0.45 μm syringe filter, diluted in water (1:100), then MeOH was added to make MeOH:water (90:10), and injected into the HPLC.

[5] = physchem
Method: To validate the method of test agent recovery from the skin, solutions (1.0 mg/mL) of each vitamin D analogue were prepared in 100% PG. The precise concentrations in these samples were analysed by HPLC method described above. To assess the chemical stability of each test agent in the donor solutions used in the Franz cell experiments, 1.0 mg/mL of the samples prepared in 100% PG were incubated in a water bath at 37° C. for 24 h. In addition, to understand the chemical stability of each test agent in the extraction solvents used in the skin deposition studies, 1 mL of the drug sample in 100% PG was added into 10 mL of extraction fluid (MeOH for cholecalciferol, cholecalciferol phosphate acid, and MeOH:water, 90:10 for cholecalciferol phosphate disodium salt). Samples in PG (n=3) and samples in PG with the extraction fluid (n=3) were left in the water bath overnight at 37° C. and the sample concentration was analysed by the HPLC method described above. To assess whether the HPLC fluid had been impacted by any proteins that had leaked out of the skin, PG:water, 80:20 was added to donor and receiver chambers of porcine skin loaded Franz cells (n=3). A 5 mL sample of the receiver fluid was collected, and 25 μL of each test solution was added to this fluid and diluted to MeOH (1:1) and analysed by the HPLC method described previously. To verify the percentage of drug that could be recovered from the skin tissue, the skin sections were dermatomed (1 mm thickness) (n=3). The test solutions were spiked (50 μL) into a sample bottle containing the chopped dermatomed skin tissue. The samples containing the spiked drugs were left for 1 h for the drugs to absorb into the tissues. After the 1 h incubation period, 5 mL of extraction fluid (MeOH for cholecalciferol, cholecalciferol phosphate acid, and MeOH:water, 90:10 for cholecalciferol phosphate disodium salt) was added into each piece of the dermatomed skin tissue, then incubated in a shaking water bath for 1 h. The solutions were then tissue lysed by a tissue lyser for 40 min and homogenised by Ultra Turrax for 1 min and filtered using 0.45 μm syringe filters, centrifuged for 10 min at 13,000 rpm, and analysed by the HPLC method described above. In terms of cholecalciferol phosphate acid, after 1 h incubation and adding 5 mL extraction fluid, immediately the solutions with skin tissues were tissue lysed by a tissue lyser for 15 min. The solutions were then centrifuged for 10 min at 13,000 rpm and the supernatants were analysed by the HPLC method described above.

[6] = patch pre-formulation, saturated concentration in adhesive; conditions: DURO-TAK 87-2051 adhesive; phosphate disodium salt
Method: To each solution, 175 μL of the transdermal adhesive DURO-TAK 87-2051 (51.5 w/v %) was added, and vortexed. Then 2.0 μL of α-tocopherol and 2.5 μL of diethylene glycol monoethyl ether were added and vortexed. The visual solubility was assessed.
To this solution 4 mg of α-tocopherol in 3 mL ethyl acetate was added and 167 μL of the transdermal adhesive DURO-TAK 87-2051 (51.5 w/v %) in 7 mL ethyl acetate with 6 μL diethylene glycol monoethyl ether was also added.
Each solution (3×3 cm) was cast onto the backing (3M™ Scotchpak™ Polyester Backing Film Laminate 9730, UK) to determine the clarity, and the saturation limit of the test agents in the adhesive mixtures.

[7] = physchem; conditions: for % Recovery, chemical stability with extraction fluid: 0.091 mg/mL; for recovery at 0.091 mg/mL: chemical stability with extraction fluid
Method: To validate the method of test agent recovery from the skin, solutions (1.0 mg/mL) of cholecalciferol phosphate were prepared in 100% PG and 100% water and the same concentration of cholecalciferol was prepared in 100% PG and PG:EtOH (50:50). The precise concentrations in these samples were analysed by HPLC using the method described above.
To assess the chemical stability of cholecalciferol and cholecalciferol phosphate in the donor solutions used in the Franz cell experiments, the 1.0 mg/mL of the samples prepared in the different solvents were incubated in a water bath at 37° C. for 24 h. In addition, to understand the chemical stability of cholecalciferol and cholecalciferol phosphate in the extraction solvents used in the skin deposition studies, a 1 mL of the sample of the drug in the different solvents was added into 10 mL of extraction fluid (PG:EtOH, 50:50 for cholecalciferol and MeOH:water, 90:10 for cholecalciferol phosphate). Samples with the extraction fluid were left in the water bath overnight at 37° C. and the sample concentration was analysed by HPLC method described above.

Structure (SMILES)	solubility ([1]; organic solvent or mixture)	solubility ([1]; water)	solubility ([2]; PG, read-out: Solubility in PG)	Thermodynamic activity [2]	change of purity over 4 weeks ([3]; all storage conditions)	degradation over 4 weeks ([3]; room temperature, 4° C. and −20° C.)	solubility [4]	% Recovery, chemical stability with extraction fluid ([5]; 0.091 mg/mL)	% Recovery, chemical stability without extraction fluid ([5]; 24 h, 1 mg/mL)	saturated concentration in patch formulation (highest loading without precipitation) [6]	% Recovery, chemical stability with extraction fluid [7]	degradation ([7]; 24 h, 1 mg/mL)	recovery at 0.091 mg/mL ([7]; % Recovery)	solubility ([1]; oil or lipid)	solubility [2]	recovery at 0.091 mg/mL [5]	recovery at 24 h, 1 mg/mL [5]	recovery at 24 h, 1 mg/mL ([7]; % Recovery, chemical stability without extraction fluid)
C=C1CC[C@H](OP(=O)(O)O)C/C1=C/C=C1\CCC[C@@]2(C)C1CC[C@@H]2[C@H](C)CCCC(C)C (stereo partly drawn) [Cholecalciferol phosphate disodium salt, cholecalciferol phosphate disodium salt]	< 2000 µg/mL	< 2500 µg/mL	2500 µg/mL	1.0	less than 1%	did not degrade at any of the storage conditions	78.7 mg/mL	95.18 ± 4.82%	81.87 ± 2.46%	13.57 w/w %	76.01 ± 1.42%	20%	95.2 ± 5.88%					
C=C1CC[C@H](O)C/C1=C/C=C1\CCC[C@]2(C)[C@@H]([C@H](C)CCCC(C)C)CC[C@@H]12 [Cholecalciferol, cholecalciferol, reference compound]				0.8							90.52 ± 0.42%		91.76 ± 0.87%	> 25000 µg/mL	3150 µg/mL (≈ 8.19 mM)	91.97 ± 0.63%	77.5 ± 7.05%	90%
